In article PMC6332448, “SAR Studies Leading to the Identification of a Novel Series of Metallo-β-lactamase Inhibitors for the Treatment of Carbapenem-Resistant Enterobacteriaceae Infections That Display Efficacy in an Animal Infection Model” (ACS Infectious Diseases, 2018):
pIC50: −log10 of the molar value. Like-named read-outs stand apart in the source and are kept apart here.

Legend:
Experiment in all cases: biochemical
NDM-1 = NDM-1 (Klebsiella pneumoniae, UniProt C7C422); format: biochemical; conditions: for pIC50: 10 mM HEPES pH 7.5, 25 °C, average of at least two independent assays; for inhibition of NDM-1, in words: tested up to 200 μM
VIM-1 = VIM-1 (Pseudomonas aeruginosa, UniProt A0A0F7KYQ8); format: biochemical; conditions: for inhibition of VIM-1, in words: tested up to 200 μM
IMP-1 = IMP-1 (Serratia marcescens, UniProt P52699); format: biochemical; conditions: for inhibition of IMP-1, in words: tested up to 200 μM
VIM-2 = VIM-2 (Escherichia coli, UniProt Q5U7L7)
[1] = 300 μM imipenem, read-out: NDM-1 IC50
[2] = 300 μM imipenem, 10 mM HEPES pH 7.5, 25 °C, average of at least two independent assays, read-out: VIM-1 IC50
[3] = 300 μM imipenem, 10 mM HEPES pH 7.5, 25 °C, average of at least two independent assays, read-out: IMP-1 IC50

NDM-1, sequence (C7C422 29-270, looked up, species assumed): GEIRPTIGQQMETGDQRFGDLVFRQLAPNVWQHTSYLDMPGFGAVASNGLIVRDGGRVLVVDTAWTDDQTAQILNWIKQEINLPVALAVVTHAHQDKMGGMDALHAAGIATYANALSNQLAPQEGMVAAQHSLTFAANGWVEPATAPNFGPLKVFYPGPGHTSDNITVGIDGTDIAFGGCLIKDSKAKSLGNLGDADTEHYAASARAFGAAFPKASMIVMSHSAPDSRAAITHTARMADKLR
IMP-1, sequence (P52699 19-246, looked up, species assumed): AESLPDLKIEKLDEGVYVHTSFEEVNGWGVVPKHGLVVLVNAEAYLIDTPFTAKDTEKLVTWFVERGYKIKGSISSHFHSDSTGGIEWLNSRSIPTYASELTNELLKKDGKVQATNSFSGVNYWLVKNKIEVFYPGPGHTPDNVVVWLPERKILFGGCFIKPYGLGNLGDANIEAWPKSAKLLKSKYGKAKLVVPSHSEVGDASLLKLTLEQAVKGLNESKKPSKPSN

SMILES	pIC50 (NDM-1; [1])	pIC50 (VIM-1; [2])	pIC50 (IMP-1; [3])	pIC50 (NDM-1; NDM-1 IC50, 300 μM imipenem)	pIC50 (VIM-1)	pIC50 (IMP-1)	pIC50 (VIM-2)	inhibition of NDM-1, in words (NDM-1)	inhibition of VIM-1, in words (VIM-1)	inhibition of IMP-1, in words (IMP-1)
N#Cc1cccc(S(=O)(=O)Nc2ccc(C(=O)O)nc2)c1 [Compound 60]	5.14	< 3.70	3.79							
O=C(O)c1ncsc1NS(=O)(=O)c1ccncc1 [Compound 77]				5.47	3.74	4.63	5.74			
O=C(O)c1cc(NS(=O)(=O)c2ccccc2)ccn1 [Compound 55]	3.84	< 3.70	< 3.70							
O=C(O)c1ncccc1NS(=O)(=O)c1ccc(F)cc1 [Compound 35]	4.28	< 3.70	< 3.70							
O=C(O)c1cccc(NC(=O)c2cocn2)n1 [Compound 25]	4.25	< 3.70	< 3.70							
COc1cccc(S(=O)(=O)Nc2cccc(C(=O)O)n2)c1 [Compound 45]	4.36	< 3.70	< 3.70							
O=C(O)c1ncccc1-c1ccoc1 [Compound 13]				< 3.70	< 3.70	< 3.70	< 3.70			
CS(=O)(=O)c1ccc(S(=O)(=O)Nc2cccnc2C(=O)O)cc1 [Compound 30]	4.16	< 3.70	< 3.70							
COc1ccc(C(=O)Nc2cccc(C(=O)O)n2)cc1 [Compound 24]	4.69	< 3.70	3.81							
O=C(O)c1cnccn1 [Compound 9]				< 3.70	< 3.70	< 3.70	< 3.70	no detectable inhibition	no detectable inhibition	no detectable inhibition
O=C(O)c1cccc(-c2ccc(F)c(F)c2)n1 [Compound 16]				< 3.70	< 3.70	< 3.70	< 3.70			
O=C(O)c1ncccc1NS(=O)(=O)Cc1ccc(Cl)c(Cl)c1 [Compound 69]				< 3.70	< 3.70	< 3.70				
CCCCNC(=O)c1cccc(C(=O)O)n1 [Compound 49]	< 3.70	< 3.70	< 3.70							
O=C(Cc1cccs1)Nc1cccnc1C(=O)O [Compound 23]				5.18	3.88	3.84	4.04			
O=C(O)c1ncccc1NS(=O)(=O)Cc1ccc(Cl)cc1Cl [Compound 71]				4.09	4.76	4.13				
CS(=O)(=O)Nc1cccc(C(=O)O)n1 [Compound 47]	4.48	< 3.70	< 3.70							
O=C(Cc1ccccc1)Nc1ccc(C(=O)O)nc1 [Compound 56]	4.67	< 3.70	< 3.70							
O=C(O)c1ccc2ccccc2n1 [Compound 7]				4.39	< 3.70	< 3.70	< 3.70	modest inhibition	no inhibition	no inhibition
O=C(O)c1cccnn1 [Compound 10]				< 3.70	< 3.70	< 3.70	< 3.70	no detectable inhibition	no detectable inhibition	no detectable inhibition
CS(=O)(=O)Nc1cccnc1C(=O)O [Compound 31]	4.16	< 3.70	< 3.70							
O=C(O)c1cc(NS(=O)(=O)Cc2ccccc2)ccn1 [Compound 54]	4.19	< 3.70	< 3.70							
O=C(O)c1ncccc1-c1ccc(F)c(F)c1 [Compound 14]				< 3.70	< 3.70	< 3.70	< 3.70			
O=C(O)c1ncccc1NS(=O)(=O)Cc1ccc([N+](=O)[O-])cc1 [Compound 44]	3.92	< 3.70	< 3.70							
O=C(O)c1ncccc1NS(=O)(=O)Cc1ccc(Cl)cc1 [Compound 42]	4.74	4.05	3.83							
O=C(O)c1ncccc1NS(=O)(=O)c1ccccc1Cl [Compound 34]	< 3.70	< 3.70	< 3.70							
